Experimental data from ChEMBL document CHEMBL6114959, “Modeling, synthesis and cell-based evaluation of pyridine-substituted analogs of CD3254 and fluorinated analogs of CBt-PMN as novel therapeutics” (Bioorg Med Chem, 2025).

Tests used:
[1] = (§1) Cytotoxicity in Saccharomyces cerevisiae D7 incubated for 3 hrs; type: toxicity, organism-based; conditions: Saccharomyces cerevisiae D7 cells
[2] = Mutagenicity in Saccharomyces cerevisiae D7 incubated for 3 hrs; type: toxicity
Saccharomyces cerevisiae = experiment: as §1; type: toxicity, organism-based; conditions: in vivo, 3 h

| SMILES | CC50 at 3 h [1] [µM] | Activity [2] | Activity (Saccharomyces cerevisiae) |
| --- | --- | --- | --- |
| Cc1cc2c(cc1-n1c(C(F)(F)F)nc3cc(C(=O)O)ccc31)C(C)(C)CCC2(C)C | 193 | Non-toxic |  |
| Cc1cnc(/C=C/C(=O)O)cc1-c1cc2c(cc1C)C(C)(C)CCC2(C)C | 228 | Non-toxic |  |
| Cc1cc2c(cc1-c1nc(/C=C/C(=O)O)ccc1C)C(C)(C)CCC2(C)C | 228 | Non-toxic |  |
| Cc1cc2c(cc1-c1cncc(/C=C/C(=O)O)c1)C(C)(C)CCC2(C)C | 440 | Non-toxic |  |
| Cc1cc2c(cc1-c1cc(/C=C/C(=O)O)cnc1C)C(C)(C)CCC2(C)C | 825 | Non-toxic |  |
| C=C(c1ccc(C(=O)O)cc1)c1cc2c(cc1C)C(C)(C)CCC2(C)C [BEXAROTENE] |  | Non-toxic | Non-toxic |
